Data on two substances can be found in patent US9110082B2, “Methods for the identification and treatment of patients sensitive to anti IGF-1R inhibition therapy” (MERCK SHARP & DOHME CORP., priority 2009, dated 2015).

Test [1] deals with NSCLC cell lines. Kind of test: Anchorage independent growth (soft agar colony formation) assay in a panel of NSCLC cell lines. The class given is cell-based, human. The method, then: (§1) All NSCLC cell lines were obtained from ATCC and maintained in 10% fetal bovine serum, FBS (Hyclone) containing media (DMEM or RPMI; Invitrogen Inc) supplemented with pen-strep (Invitrogen) at 37° C. according to the instructions from ATCC.
Soft agar assays were conducted in 96 well glass bottom plates (MATRICAL). Cells were seeded at a concentration of 3,000-9,000 cells per WELL in 100 μl RPMI 1640 (INVITROGEN) supplemented with 14% FBS and 0.3% (w/v) […] Agarose (Lonza Rockland, Inc) on top of a bottom layer of consisting of the same culture media supplemented with 0.8% agarose. […] Cells were incubated for 7-14 days before staining overnight with LAVA CELL(Active Motif). Colonies were quantified using an ISOCYTE laser scanning cytometer.

Test [2] deals with Colo699 cell line. The test can be described thus: Anchorage independent growth (soft agar) assay, Colo699. The class given is cell-based, human. As to conditions: LKB1-high cell line; IGF-1 over-expression. The method, then:
as §1
Soft agar assays were conducted in 96 well glass bottom plates (MATRICAL). Cells were seeded at a concentration of 3,000-9,000 cells per WELL in 100 μl RPMI 1640 (INVITROGEN) supplemented with 14% FBS and 0.3% (w/v) […] Agarose (Lonza Rockland, Inc) on top of a bottom layer of consisting of the same culture media supplemented with 0.8% agarose. Compounds were added in 100μl of culture media supplemented after agarose had solidified. Cells were incubated for 7-14 days before staining overnight with LAVA CELL(Active Motif). Colonies were quantified using an ISOCYTE laser scanning cytometer.

The test system of test [3] is NSCLC cell lines expressing high levels of IGF-1R (NCI-H2122, A549, NCI-H460). Kind of test: Xenograft growth assessment, NSCLC models with high IGF-1R. Format: in vivo, nu/nu mice. The note with it: NCI-H2122, A549, NCI-H460 xenografts; as compared to erlotinib. The method, then:
(§2) When tumors reached a size of ˜300 mm3 (Length*Width*Width*0.5), mice were randomized into treatment groups. […] Tumor weight was determined at termination. […] Mice were sacrificed 24 hr after the final dose.

For test [4], the system named is xenograft models with low levels of IGF-1R expression (SKMES & NCI-H520). The test can be described thus: Xenograft growth assessment, NSCLC models with low IGF-1R. The class given is in vivo, nu/nu mice. As to conditions: SKMES & NCI-H520 xenografts. The method, then:
as §2

The test system of test [5] is 22 NSCLC cell lines. The note with it: growth inhibition assay; cited from earlier work.

“MK-0646: humanized antibody characterized as binding IGF-1R as well as the IR/IGF-1 hybrid receptor; described in U.S. Pat. No. 7,241,444”: the “sensitivity (anchorage independent growth inhibition) of NSCLC cell lines expressing high levels of IGF-1R” value in test [1] (26 NSCLC cell lines, MK-0646 10 ug/ml, erlotinib 1 uM, IGF-1R high cell lines) was “more sensitive”. Further, in test [1] (IGF-1R and LKB1 protein by RPPA), the “sensitivity in IGF-1R high cell lines expressing low levels of LKB1” value was “enriched”. Also, the “MK-0646 sensitivity in LKB1-low cell lines” value in test [1] (LKB1 protein not detectable by western blot (LKB1-low; n=11)) is on record as “significantly enriched”. Moreover, the “sensitivity of Colo699 cell line” value in test [2] is recorded as “very sensitive”. For the same substance, the xenograft sensitivity result in test [3] is reported as “significant sensitivity”; in test [4], “did not show sensitivity”.
Turning to “R1507: fully human IgG1 monoclonal antibody directed against the extracellular portion of the human IGF-1R”, in test [5], the “sensitivity of NSCLC cell lines to R1507” value is “none of the lines displayed “high sensitivity””.
